# According to patent US6458577B1, “Methods of culturing and assaying a virus in a specimen and compositions and cell lines for doing the same” (priority 1997, dated 2002):
# Several values for one entry are separate records, joined by “and”; a condition that tells them apart may be missing. Equal entries are not always repeated. Marks after values point to notes of the source that are not given here.
# Tests used:
# HSV-1 in mink lung cells = assay: HSV-1 shell vial culture in NaB-treated mink lung cells, foci of cytopathic effect under light microscope; type: cell-based; details: for cpe = foci of cytopathic effect: mink lung cells, average of two shell vials
# Procedure: (§1) Mink lung cells available from American Type Culture Collection ATTC No. CCL64 are provided. The cells are received in frozen vials from ATCC and are prepared by first thawing in a 37° C. water bath. The thawed cells are removed from the bath and cultured in a tissue culture flask with Opti MEM culture medium supplemented with 5% fetal calf serum and non-essential amino acids, available from Life Technologies, Inc., of Gaithersburg, Md., and the antibiotics penicillin (100 units/ml), streptomycin (100 μg/ml) and the fungizone amphotericin (0.25 μg/ml). The cultured cells reach a complete monolayer in about 3 to 4 days. The mink lung cells are propagated by trypsinization and approximately 2.5×10^5 dispersed cells per shell vial are seeded in shell vials with cover slips. The shell vials are incubated at 37° C. for 24 hours or until the cells form a monolayer.
# Mink lung cells were prepared as described in Example 1. Cells were then infected with HSV-1 (originally from clinical specimens but passaged once in tissue culture so virus content is assured). The HSV-1 culture fluid was diluted 1:1000 before use for inoculation. In each shell vial, 0.2 ml of inoculum was used. After centrifuging for 45 minutes at 700×g at 23° C., 0.5 ml of Opti-MEM with 2% fetal calf serum was added to each vial and incubated overnight at 37° C. The following day, the cytopathic effect of the inoculated culture was observed under light microscope. The results are reported in Table 2 and are from the average of two shell vials.
# CMV in MRC-5 cells = assay: CMV shell vial culture in NaB-treated MRC-5 cells, immunofluorescent staining, count of stained nuclei; type: cell-based, human; details: for counts of positive stained nuclei from 2 shell vials: 80 mM sodium butyrate 24 hours before infection, MRC-5, cell age 2 days; for MRC-5 cells # of stained nuclei: 2 mM CaCl2, 1% DMSO, 10^-5M dexamethasone after infection
# Procedure: (§2) The cells were then treated with a 5 mM sodium butyrate (NaB) tissue culture solution, prepared by dissolving the appropriate amount of NaB in tissue culture media and filtering the solution, and incubated for 16 to 24 hours. After incubation the NaB and tissue culture media is removed and the treated cells are inoculated with 0.2 ml of CMV inoculum originally from a clinical specimen obtained from urine and prepared by putting the specimen into a viral transport medium containing Hank's buffer, 1% bovine albumin and the antibiotics penicillin (200 units/ml) and streptomycin (200 μg/ml) and the fungizone amphotericin (0.5 μg/ml). After inoculation the shell vials are centrifuged at 700×g for 45 minutes at 23° C. After centrifugation, 0.5 ml of fresh media is added to each vial and the vials are incubated at 37° C. for 16 to 24 hours. After incubation the media is removed and the cell layers are rinsed with phosphate buffered saline (PBS), fixed with cold acetone for 10 minutes, and rinsed again with PBS.
# (§3) After fixing, the cells are stained by adding 100 μl of CMV monoclonal antibody (mAb), incubated at 37° C. for 45 minutes and then rinsed with PBS. The CMV mAb used is E-13 monoclonal antibody against immediate early (IE) antigen of CMV. This antibody is used as a primary antibody in the first step of staining and is available from Accurated Chemical and Scientific Co., Westbury, N.Y. After the first staining step 100 μl of biotin which is conjugated with antimouse IgG is added followed by additional incubation at 37° C. for 45 minutes. The biotin complex is available from Boerhinger Mannheim Co., Indianapolis, Ind. The cells are rinsed again with PBS after incubation and then incubated with 100 μl of streptavidin conjugated with fluorescein isothiocyanate (FITC) for 45 minutes at 37° C. The streptavidin complex is also available from Boerhinger Mannheim Co., Indianapolis, Ind. After a final rinse with PBS, a coverslip removed from the shell vial is mounted on the slide which is then examined under a fluorescence equipped microscope manufactured in Germany by Carl Zeiss, Inc., and available from W. Nuhsbaum, McHenry, II. The specific apple-green stained nuclei were counted. The results are reported in Table 1 as positive stained nuclei as an average of four shell vials.
# Conventionally, human embryonic lung (HEL) fibroblast cells, such as the MRC-5 cell line which is available from Diagnostic Hybrids, Inc., Athens, Ohio, are used worldwide for CMV culture and viral isolation.
# (§4) These examples were prepared using the same procedure as Example 1, except that the concentration of NaB used was varied and both mink lung cells and MRC-5 cells were used. Also, the MRC-5 were treated with NaB before infection and 2 mM CaCl2, 1% DMSO and 10^−5M dexamethasone after infection. Table 3 indicates the concentration of NaB used and the results obtained.
# (§5) These examples used the same procedure as Example 1 for CMV growth except that the age of the cells were varied, the cells were treated with 80 mM sodium butyrate 24 hours before infection, and the MCR-5 cells were treated 2 mM calcium chloride (CaCl2), 1% dimethyl sulfoxide (DMSO)and 10^−5M dexamethasone after infection.
# as §5, with “MRC-5” for “MCR-5”, “(DMSO), and” for “(DMSO)and”, “infection. The cell age is measured as the time after seeding of the cells in the shell vial.” for “infection.”
# [1] = system: CMV in mink lung cells (ATCC No. CCL64); assay: CMV shell vial culture in NaB-treated mink lung cells, immunofluorescent staining of IE antigen, count of stained nuclei; type: cell-based; details: for # of Foci (average # of stained nuclei counted from three shell vials): 80 mM sodium butyrate, mink lung
# [2] = system: CMV in mink lung cells (ATCC No. CCL64); assay: as above; type: cell-based; details: for Treated: average # of nuclei staining from three shell vials: 80 mM sodium butyrate 24 hours before CMV infection; for Treated: average # of nuclei staining from three shell vials / counts of positive stained nuclei from 2 shell vials / # of Foci (average # of stained nuclei counted from three shell vials): mink lung; for counts of positive stained nuclei from 2 shell vials: 80 mM sodium butyrate 24 hours before infection; for # of Foci (average # of stained nuclei counted from three shell vials): 80 mM sodium butyrate; for # positive stained nuclei: average of four shell vials
# Procedure: as §1, §2
# as §3, with “vials. […]” for “vials.”
# as §4, with “obtained. […]” for “obtained.”
# These examples used the same procedure as Example 1 for CMV growth except that the time of treatment with sodium butyrate was varied, i.e., the cells were treated with 80 mM sodium butyrate for different times before infection, and the MRC-5 cells were treated with 2 mM calcium chloride (CaCl2), 1% dimethyl sulfoxide (DMSO) and 10^−5M dexamethasone after infection.
structure (smiles),measurement,setting,value
"CCCC(=O)[O-].[Na+] [NaB, sodium butyrate]",cpe = foci of cytopathic effect,"HSV-1 in mink lung cells; NaB 2.5 mM, 16 to 24 hours before HSV-1 infection (1:1000)",18
same,cpe = foci of cytopathic effect,HSV-1 in mink lung cells; NaB 5.0 mM before HSV-1 infection,20
same,cpe = foci of cytopathic effect,HSV-1 in mink lung cells; NaB 10.0 mM before HSV-1 infection,22
same,cpe = foci of cytopathic effect,HSV-1 in mink lung cells; NaB 20 mM before HSV-1 infection,12
same,sensitivity for HSV isolation and detection versus RK cells (in words),"HSV-1 in mink lung cells; NaB treated mink lung cells, Table 2",comparable sensitivity
same,Treated: average # of nuclei staining from three shell vials,"CMV in MRC-5 cells; 80 mM sodium butyrate 24 hours before CMV infection, MRC-5, cell age 4 days, CaCl2, DMSO, dexamethasone after infection",4
same,counts of positive stained nuclei from 2 shell vials,"CMV in MRC-5 cells; CaCl2, DMSO, dexamethasone after infection, inoculum 10^-0 (no dilution)",39/29
same,counts of positive stained nuclei from 2 shell vials,"CMV in MRC-5 cells; CaCl2, DMSO, dexamethasone after infection, inoculum 10^-1 (1:10 dilution)",3/1
same,counts of positive stained nuclei from 2 shell vials,"CMV in MRC-5 cells; CaCl2, DMSO, dexamethasone after infection, inoculum 10^-2 (1:100 dilution)",0/0
same,MRC-5 cells # of stained nuclei,CMV in MRC-5 cells; NaB 10 mM before CMV infection,2 and 3
same,MRC-5 cells # of stained nuclei,CMV in MRC-5 cells; NaB 20 mM before CMV infection,2
same,MRC-5 cells # of stained nuclei,CMV in MRC-5 cells; NaB 80 mM before CMV infection,7 and 6
same,# of Foci (average # of stained nuclei counted from three shell vials),[1]; time of treatment 2 hours before CMV infection,126
same,# of Foci (average # of stained nuclei counted from three shell vials),[1]; time of treatment 8 hours before CMV infection,306
same,enhancement of CMV expression,[1]; 2 hour treatment of mink lung cells with NaB (80 mM),more than a two fold enhancement
same,time of treatment required for optimum enhancement of CMV expression,"[1]; mink lung cells, 80 mM NaB",at least 8 hours
same,effect on susceptibility of mink lung cells to CMV infection at different cell age (in words),"[2]; 80 mM NaB, cell age 2 to 7 days, Table 5",enhanced the susceptibility
same,Treated: average # of nuclei staining from three shell vials,[2]; cell age 2 days,123*
same,Treated: average # of nuclei staining from three shell vials,[2]; cell age 3 days,121
same,Treated: average # of nuclei staining from three shell vials,[2]; cell age 5 days,78
same,Treated: average # of nuclei staining from three shell vials,[2]; cell age 7 days,30
same,counts of positive stained nuclei from 2 shell vials,"[2]; cell age 2 days, inoculum 10^-0 (no dilution)",232/220
same,counts of positive stained nuclei from 2 shell vials,"[2]; cell age 2 days, inoculum 10^-1 (1:10 dilution)",44/52
same,counts of positive stained nuclei from 2 shell vials,"[2]; cell age 2 days, inoculum 10^-2 (1:100 dilution)",5/2
same,counts of positive stained nuclei from 2 shell vials,"[2]; cell age 3 days, inoculum 10^-0 (no dilution)",242/309
same,counts of positive stained nuclei from 2 shell vials,"[2]; cell age 3 days, inoculum 10^-1 (1:10 dilution)",47/43
same,counts of positive stained nuclei from 2 shell vials,"[2]; cell age 3 days, inoculum 10^-2 (1:100 dilution)",1/2
same,# of Foci (average # of stained nuclei counted from three shell vials),[2]; time of treatment 4 hours before CMV infection,234
same,# of Foci (average # of stained nuclei counted from three shell vials),[2]; time of treatment 6 hours before CMV infection,276
same,# of Foci (average # of stained nuclei counted from three shell vials),[2]; time of treatment 18 hours before CMV infection,360*
same,response of mink lung cells to NaB treatment versus NaB treated MRC-5 cells (in words),"[2]; CMV infection, Table 3",better response
same,# positive stained nuclei,"[2]; NaB 5 mM, 16 to 24 hours before CMV inoculation, mink lung cells",22
same,Mink lung cells # of stained nuclei,[2]; NaB 10 mM before CMV infection,7 and 9
same,# positive stained nuclei,"[2]; NaB 10 mM before CMV inoculation, mink lung cells",30
same,Mink lung cells # of stained nuclei,[2]; NaB 20 mM before CMV infection,12
same,# positive stained nuclei,"[2]; NaB 20 mM before CMV inoculation, mink lung cells",38
same,Mink lung cells # of stained nuclei,[2]; NaB 40 mM before CMV infection,12 and 23
same,# positive stained nuclei,"[2]; NaB 40 mM before CMV inoculation, mink lung cells",71
same,Mink lung cells # of stained nuclei,[2]; NaB 80 mM before CMV infection,26 and 32
same,# positive stained nuclei,"[2]; NaB 80 mM before CMV inoculation, mink lung cells",85
same,increase in number of stained cells as compared with untreated mink lung cells,"[2]; NaB 80 mM, CMV, mink lung cells",about 10 fold
same,sensitivity for CMV isolation and detection versus MRC-5 cells (in words),"[2]; NaB treated mink lung cells, Table 1",far superior sensitivity
same,optimum concentration for growth of CMV in mink lung cells,[2]; Table 1,about 80 mM
same,virus detection at high dilution of inoculum (in words),"[2]; mink lung cells treated with NaB 80 mM, Table 4",the virus is still detected
